# In patent US7355001B2, “Organic anion transport protein TCH229” (Takeda Pharmaceutical Company Limited, priority 2002, dated 2008):
# Columns and labels:
# human TCH229 [1] = test: Expression of human TCH229 gene in RPTEC stimulated with stimulants (TaqMan PCR); assay type: cell-based; conditions: stimulant 10 ng/ml, 0.5-8 hours after addition
# Procedure: (§1) (2) Preparation of cDNA from Normal Human Cells Stimulated with Various Stimulants a) Renal proximal tubular epithelial cell (RPTEC) and human renal cortical epithelial cell (HRCE) (both available from Cambrex BioScience Walkersvill) were plated on a 24-well collagen-coated plate in 1×10^5 cells/well and then cultured overnight, and after the medium was replaced by […] (T3)-free Bullet Kit REGM (BIO WHITTAKER), the cells were cultured for additional 30 minutes. b) As stimulants, TGF-β1 (Wako Pure Chemical Industries, Ltd.), TNF-α (Genzyme), IL-1β (Genzyme), IL-6 (Genzyme) and PMA (Wako Pure Chemical Industries, Ltd.) were used. A solution was prepared by diluting each of these 5 stimulants at the final concentration of 10 ng/ml with T3-free Bullet Kit REGM (BIO WHITTAKER). c) Just after the culture supernatants of the RPTEC and HRCE in the above item a) were removed, the solution prepared in the above item b) was added in a volume of 500 μl/well, and the cells were cultured. As the control, a mixture of the 5 stimulants dissolved in a solvent was diluted at the same ratio as the stimulants with T3-free Bullet Kit REGM (BIO WHITTAKER) to prepare a solution, and 500 μl of the solution was added to each well of RPTEC and HRCE, and the cells were cultured. d) 0.5, 1, 2, 4, 6 and 8 hours after addition of the stimulants, the cells were recovered respectively, and total RNA was prepared by using RNeasy Mini Kit (Quiagen). The total RNA thus prepared was subjected to reverse transcription reaction using TaqMan Reverse Transcription Reagents (manufactured by Applied Biosystems, Inc.) to prepare the cDNA. (3) Analysis of Expression of Human TCH229 Gene in Commercially Available Normal Human Cells
# (§2) The expression level (copy number) of human TCH229 in the cDNAs prepared from the normal human cells and the PRTEC and HRCE stimulated with the stimulants was measured by TaqMan PCR with the 2 primer DNAs used in Example 4 (that is, primer TMF (SEQ ID NO: 19) and primer TMR (SEQ ID NO: 20)) and TaqMan probe P1 (SEQ ID NO: 21). For the cDNAs prepared respectively from the normal human cells and the PRTEC and HRCE stimulated with the stimulants, the expression level (copy number) of ribosomal RNA (18S) was assayed by using Eukaryotic 18S rRNA Pre-Developed TaqMan Assay Reagents (manufactured by Applied Biosystems, Inc.), and the expression level (copy number) of human glyceraldehyde-3-phosphate dehydrogenase (GAPDH) was also assayed by using human GAPD (GAPDH) (manufactured by Applied Biosystems, Inc.). […]
# human TCH229 [2] = test: Expression of human TCH229 gene in HRCE stimulated with stimulants (TaqMan PCR); assay type: cell-based; conditions: stimulant 10 ng/ml, 0.5-8 hours after addition
# Procedure: as §1, §2
Molecule,"fluctuation of expression of human TCH229 (mRNA, relative to human GAPDH) as compared with the control (human TCH229 [1])","fluctuation of expression of human TCH229 (mRNA, relative to human GAPDH) as compared with the control (human TCH229 [2])"
"IL-1β: stimulant, IL-1β (Genzyme)",decreased depending on culture time,decreased depending on culture time
TNF-α,decreased depending on culture time,decreased depending on culture time
CCCCCCCCCCCCCC(=O)O[C@@H]1[C@@H](C)[C@@]2(O)[C@@H](C=C(CO)C[C@]3(O)C(=O)C(C)=C[C@@H]23)[C@@H]2C(C)(C)[C@]12OC(C)=O [PMA],decreased depending on culture time,decreased depending on culture time
"TGF-β1: stimulant, TGF-β1 (Wako Pure Chemical Industries, Ltd.)",decreased depending on culture time,decreased depending on culture time
